According to patent US8110570B2, “Modulators of acetyl-coenzyme A carboxylase and methods of use thereof” (Cropsolution, Inc., priority 2008, dated 2012):
pIC50: −log10 of the molar value.

Legend:
[1] = molecular target: T1, hACC1-CT (Homo sapiens, UniProt Q13085); assay: acetyl-CoA/malonyl-CoA isotope exchange assay, CT half-reaction; assay type: biochemical
T1 construct: PCR primers were designed for full-length hACC1 and hACC2 using GenBank submissions AY237919 and AJ575592, respectively; His tag (C); made in house; host or cells: baculovirus, Sf9 insect cells
Procedure: Overall ACC activity is comprised of two half-reactions, the BC reaction (the ATP-dependent carboxylation of biotin) and the CT reaction (the transfer of the carboxyl group from biotin to acetyl-CoA to form malonyl-CoA). Thus, it is of interest to localize the site of action of ACC inhibitors. To this end, representative compounds are tested in an acetyl-CoA/malonyl-CoA isotope exchange reaction which specifically measures the CT-half reaction. This assay is performed with slight modifications of published procedures (Gregolin et al., J Biol Chem, 1968, 243:4227-4235; Rendina et al., J Agric Food Chem, 1990, 38:1282-1287). Briefly, the reaction mixture (50 μL) contained 50 mM Hepes (pH 7.4), 20 mM K-citrate, 1.5 mM MgSO4, 4 mM malonyl-CoA, 1.67 mM acetyl-CoA, 0.34 mM [^14C]acetyl-CoA (about 60 mCi/mmol), 0.75 mg/mL BSA, and 1% (v/v) DMSO with or without inhibitor. Reactions are initiated by the addition of hACCl (0.3 μg) or hACC2 (0.15 μg) enzyme and incubated at 37° C. for 10 min. Reactions are stopped by addition of a 0.2M sodium arsenate solution containing 1U of phosphotransacetylase (13.5 μL) and incubation at room temperature for 30 min. […] The samples are then resuspended in water (200 μL), added to scintillation cocktail (3 mL), and counted in a scintillation counter to quantify radiolabel incorporated into malonyl-CoA. […]

[2] = system: hepatic fatty acid synthesis; assay: In vivo inhibition of rat hepatic fatty acid synthesis; conditions: oral
Procedure: In vivo measurement of fatty acid synthesis inhibition in mammals. Incorporation of [2-^14C]acetate into saponifiable lipids in the livers of mammals (e.g. Sprague Dawley rats, Charles River Laboratories, Boston, Mass. or Harlan Laboratories, Indianapolis, Ind.) can be measured as described previously (Harwood Jr. H. J. et al., J Biol Chem, 39: 37099-37111 (2003)). For example, animals given food and water ad libitum are treated orally at volume of 1.0 ml/200 g of body weight with either an aqueous solution containing 0.5% methyl cellulose (vehicle) or an aqueous solution containing 0.5% methyl cellulose containing test compound. One hour after compound administration, animals receive an intraperitoneal injection of [2-^14C]acetate (0.02 mL, 1 mCi/mL; 50 mCi/mmol. One hour after radiolabel administration, animals are sacrificed by CO2 asphyxiation, and two liver pieces (about 0.75 g each) are removed and saponified at 70° C. for 120 min in 2.5 M NaOH (1.5 mL). After saponification, absolute EtOH (2.5 mL) is added to each sample and the solutions are mixed and allowed to stand overnight. Petroleum ether (4.8 mL) is then added to each sample, and after vigorous shaking (2 min) the mixtures are centrifuged at 1000×g (5 min). The petroleum ether layer containing the nonsaponifiable lipids is removed and discarded. The remaining aqueous layer is acidified (pH<2) by addition of 12 M HCl (0.6 mL) and extracted two times with petroleum ether (4.8 mL). The pooled organic fractions are transferred to liquid scintillation vials, dried under nitrogen, dissolved in Aquasol scintillation fluid (7 ml), and radioactivity is quantified by liquid scintillation counting. Inhibition of fatty acid synthesis by the test compound is expressed as a relative percent inhibition of measured incorporation of [2-^14C]acetate into saponifiable lipids during the interval between [2-^14C]acetate injection and CO2 asphyxiation in animals receiving test compound, compared to control animals receiving only the vehicle.
Compounds of the present invention, and salts thereof, were evaluated for inhibition of fatty acid synthesis as described above.

[3] = system: beta-hydroxybutyrate levels; assay: In vivo elevation of rat serum beta-hydroxybutyrate levels; conditions: orally at 30 mg/Kg
Text: Determination of blood levels of ketone bodies after oral dosing of ACC inhibitors. Compounds of this invention, and salts thereof, can be evaluated for their potential as treatments for diseases caused by reduced neuronal metabolism by assessing their effects on plasma levels of beta-hydroxybutyrate. Inhibition of ACC leads to increased rates of fatty acid oxidation and therefore production of beta-hydroxybutyrate. Rats (Sprague Rats (Sprague Dawley, Charles River Laboratories, Boston, Mass.) are acclimated for at least 4 days prior to dosing. For example, animals given food and water ad libitum are treated at volume of 1.0 mL/200 g of body weight with either an aqueous solution containing 0.5% methyl cellulose (vehicle) or an aqueous solution containing 0.5% methyl cellulose containing test compound. At various times after compound administration whole blood is collected from a jugular vein catheter into lithium heparin coated tubes, mixed gently, kept on ice and centrifuged (2500×g, 15 minutes at 4° C.) within 1 hour of collection. The isolated plasma is kept frozen at −20° C. until further processing. Plasma levels of beta-hydroxybutyrate are determined using a beta-hydroxybutyrate detection kit following the manufacturer's directions (StanBio Laboratory, Boerne, Tex.). Compounds of the present invention, and salts thereof, were assessed for their ability to increase serum beta-hydroxybutyrate levels as described above.

SMILES	pIC50 [1]	Percent Inhibition at 10 mg/Kg [2] [%]	Percent Inhibition at 30 mg/Kg [2] [%]	Average beta-Hydroxybutyrate Concentration ([3]; 15 min) [mM]	Average beta-Hydroxybutyrate Concentration ([3]; 30 min) [mM]	Average beta-Hydroxybutyrate Concentration ([3]; 60 min) [mM]	Average beta-Hydroxybutyrate Concentration ([3]; 120 min) [mM]	Average beta-Hydroxybutyrate Concentration ([3]; 240 min) [mM]
COc1cc(C(=O)N2CCC3(CC2)NC(=O)c2cc(Br)ccc2O3)nc2c(OC)cccc12 [Compound 2, 6-Bromo-1′-[(4,8-dimethoxyquinoline-2-yl)carbonyl]spiro[2H-1,3-benzoxazine-2,4′-piperidine]-4(3H)-one]	7.00	–	–	–	–	–	–	–
COc1ccc2c(c1)C(=O)NC1(CCN(C(=O)c3cc(OC)c4cccc(OC)c4n3)CC1)O2 [Compound 150]	–	20	54	0.160	0.214	0.147	0.140	0.102
COc1cc(C(=O)N2CCC3(CC2)NC(=O)c2cc(OC(C)C)ccc2O3)nc2c(OC)cccc12 [Compound 169]	–	30	60	0.149	0.201	0.135	0.126	0.118
